Series [1] concerns the target T1, Fructose-1,6-bisphosphatase 1 (Rattus norvegicus, UniProt P19112).
T1 sequence (P19112 whole entry): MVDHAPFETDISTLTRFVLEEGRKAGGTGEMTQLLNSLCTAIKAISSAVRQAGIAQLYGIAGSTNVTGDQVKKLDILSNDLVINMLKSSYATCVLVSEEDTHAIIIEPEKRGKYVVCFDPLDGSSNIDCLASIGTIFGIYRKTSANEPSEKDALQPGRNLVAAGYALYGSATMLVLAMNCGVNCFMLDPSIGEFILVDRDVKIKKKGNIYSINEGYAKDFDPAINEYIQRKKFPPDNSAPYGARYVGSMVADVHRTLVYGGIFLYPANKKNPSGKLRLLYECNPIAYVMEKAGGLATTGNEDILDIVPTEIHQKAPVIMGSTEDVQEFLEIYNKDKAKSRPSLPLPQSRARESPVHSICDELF
Briefly: Inhibition of rat liver FBPase 1.

The next series deals with Hepatocyte. Briefly: cells. The settings on record: Rattus norvegicus.
In series [2] the target is T2, Fructose-1,6-bisphosphatase 1 (Homo sapiens, UniProt P09467).
T2 sequence (P09467 whole entry): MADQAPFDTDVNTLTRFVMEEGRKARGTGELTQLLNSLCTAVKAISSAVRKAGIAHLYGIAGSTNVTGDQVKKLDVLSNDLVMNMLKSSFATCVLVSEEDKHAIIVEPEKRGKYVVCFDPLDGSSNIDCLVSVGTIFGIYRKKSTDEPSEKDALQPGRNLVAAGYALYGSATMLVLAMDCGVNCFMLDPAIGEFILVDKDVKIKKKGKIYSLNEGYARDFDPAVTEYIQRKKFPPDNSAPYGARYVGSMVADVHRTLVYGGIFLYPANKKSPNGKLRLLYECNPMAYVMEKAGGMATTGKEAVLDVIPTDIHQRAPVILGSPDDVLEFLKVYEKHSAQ
Briefly: Inhibition of human liver FBPase 1.

Another series deals with Rattus norvegicus. Briefly: Reduction of blood glucose level in 18 hrs fasted normal Sprague-Dawley rat at 10 mg/kg, iv after 1 hr interval. The format is functional. Also on record: scale not given: the % may be the effect or the level left.
The nature of series [3]: Oral bioavailability in 18 hrs fasted normal Sprague-Dawley rat up to 100 mg/kg by urinary excretion assay. The settings on record: urine. The format is ADME, organism-based.

The results in this text go back to ChEMBL document CHEMBL1156817, “Fructose-1,6-bisphosphatase Inhibitors. 2. Design, synthesis, and structure-activity relationship of a series of phosphonic acid containing benzimidazoles that function as 5'-adenosinemonophosphate (AMP) mimics” (J Med Chem, 2010).

Description for Hepatocyte: Inhibition of glucose production in rat primary hepatocytes

For `Cn1c(-c2ccc(P(=O)(O)O)o2)nc2c(N)cccc21`, the IC50 in series [1] is 20 µM; with Hepatocyte, 100 µM; in series [2] it was 6 µM.

With `Nc1cccc2c1nc(-c1ccc(P(=O)(O)O)o1)n2Cc1cccc(O)c1`, the IC50 in series [1] worked out at 20 µM; in the series on Hepatocyte, 100 µM; in series [2] it was 1.85 µM.

In the case of `CC(C)Cn1c(-c2ccc(P(=O)(O)O)o2)nc2c(N)c(F)cc(CCCCCl)c21`, the figures for the IC50 (in series [1]; in the series with Hepatocyte; in series [2]) were 0.5 µM, 3.1 µM and 0.07 µM, respectively. Also, in the series with Rattus norvegicus, the Activity came out at 47%.

In series [3], `CCc1cc(F)c(N)c2nc(-c3ccc(P(=O)(OCCSC(C)=O)OCCSC(C)=O)o3)n(CC(C)C)c12` yielded a bioavailability of 2%.

As to `CC(C)(C)c1ccc(Cn2c(-c3ccc(P(=O)(O)O)o3)nc3c(N)cccc32)cc1`, the IC50 was determined as 20 µM in series [1], 100 µM with Hepatocyte and 9.5 µM in series [2].

For `Nc1c(F)ccc2c1nc(-c1ccc(P(=O)(O)O)o1)n2CC1CC1`, the IC50 in series [1] turned out to be 2.18 µM; with Hepatocyte, 3.3 µM.

In the case of `CC(C)Cn1c(-c2ccc(P(=O)(O)O)o2)nc2c(N)c(F)cc(CCCO)c21`, the IC50 was found to be 0.45 µM in series [1], 1 µM with Hepatocyte and 0.08 µM in series [2]. Besides, the Activity in the series on Rattus norvegicus is 63%.

As for `Nc1cccc2c1nc(-c1ccc(P(=O)(O)O)o1)n2Cc1ccc(-c2ccccc2)cc1`, the IC50 amounted to 20 µM in series [1], 100 µM in the series with Hepatocyte and 2.5 µM in series [2].

On to `CCCc1ccc2c(nc(-c3ccc(P(=O)(O)O)o3)n2CC(C)C)c1N`, for which the IC50 amounted to 20 µM in series [1], 50 µM in the series on Hepatocyte and 3 µM in series [2].

Consider `CC(C)Cn1c(-c2ccc(P(=O)(O)O)o2)nc2c(N)c(F)cc(CCCN(C)C)c21`, for which the IC50 in series [1] turned out to be 0.4 µM; in series [2], 0.055 µM. The same compound came in with an Activity in the series on Rattus norvegicus of 44%.

As to `Nc1cccc2c1nc(-c1ccc(P(=O)(O)O)o1)n2Cc1ccoc1`, the IC50 was 20 µM in series [1], 100 µM in the series on Hepatocyte and 4.2 µM in series [2].

Consider `Nc1cccc2c1nc(-c1ccc(P(=O)(O)O)o1)n2CC1CCCCC1`, for which the IC50 is 20 µM in series [1], 100 µM in the series on Hepatocyte and 2.5 µM in series [2].

As for `Nc1cccc2c1nc(-c1ccc(P(=O)(O)O)o1)n2CC1CCC1`, the IC50 in series [1] is 2 µM; in the series with Hepatocyte it was 40 µM; in series [2], 0.8 µM.

Turning to `CC(C)Cn1c(-c2ccc(P(=O)(O)O)o2)nc2c(N)c(F)cc(-c3ccccc3)c21`, the IC50 is 0.9 µM in series [1], 18 µM in the series on Hepatocyte and 0.09 µM in series [2]. The compound further gave an Activity with Rattus norvegicus of 0%.

`CC(C)Cn1c(-c2ccc(P(=O)(O)O)o2)nc2c(N)ccc(Cl)c21`: the results for the IC50 (in series [1]; in the series on Hepatocyte; in series [2]) were 2 µM, 24 µM and 0.9 µM, respectively.

On to `Nc1cccc2c1nc(-c1ccc(P(=O)(O)O)o1)n2CC1CCCC1`, for which the IC50 in series [1] stood at 2 µM; in the series with Hepatocyte, 45 µM; in series [2] it was 1.5 µM.

On to `CCOC(=O)[C@H](C)NP(=O)(N[C@@H](C)C(=O)OCC)c1ccc(-c2nc3c(N)c(F)cc(CC)c3n2CC(C)C)o1`, for which, in series [3], the bioavailability amounted to 5%.

In the case of `Nc1cccc2c1nc(-c1ccc(P(=O)(O)O)o1)n2Cc1ccsc1`, the IC50 in series [1] worked out at 20 µM; in the series with Hepatocyte, 100 µM; in series [2], 4 µM.

For the compound `CC(C)Cn1c(-c2ccc(P(=O)(O)O)o2)nc2c(N)c(Br)cc(Br)c21`, the IC50 in series [1] is 2 µM; in the series with Hepatocyte, 14 µM; in series [2] it was 1 µM.

Turning to `CC(C)Cn1c(-c2ccc(P(=O)(O)O)o2)nc2c(N)c(Cl)ccc21`, the IC50 came to 2 µM in series [1], 15 µM in the series on Hepatocyte and 0.2 µM in series [2].

For the compound `CC(C)Cn1c(-c2ccc(P(=O)(O)O)o2)nc2c(N)c(F)cc(Br)c21`, the IC50 in series [1] came out at 2.09 µM; in the series with Hepatocyte, 5 µM; in series [2], 0.13 µM.

In the case of `CC(C)Cn1c(-c2ccc(P(=O)(O)O)o2)nc2c(N)c(F)ccc21`, the IC50 in series [1] came to 2.28 µM; in the series on Hepatocyte, 2.4 µM; in series [2], 0.1 µM.

For the compound `Nc1cccc2c1nc(-c1ccc(P(=O)(O)O)o1)n2CC1CC1`, the results for the IC50 (in series [1]; with Hepatocyte; in series [2]) were 20 µM, 100 µM and 0.8 µM, respectively.

As for `CCCn1c(-c2ccc(P(=O)(O)O)o2)nc2c(N)cccc21`, the IC50 in series [1] came to 2 µM; with Hepatocyte it was 37 µM; in series [2], 1.1 µM.

In the case of `CCCc1cc(F)c(N)c2nc(-c3ccc(P(=O)(O)O)o3)n(CC(C)C)c12`, the IC50 in series [1] turned out to be 0.65 µM; with Hepatocyte, 5.5 µM; in series [2], 0.1 µM. In addition, the Activity in the series with Rattus norvegicus is 60%.

Consider `CC(C)Cn1c(-c2ccc(P(=O)(O)O)o2)nc2c(N)c(F)cc(-c3ccc(Cl)cc3)c21`, for which the values for the IC50 (in series [1]; in the series on Hepatocyte; in series [2]) were 2 µM, > 25 µM and 0.09 µM, respectively.

Regarding `Nc1cccc2c1nc(-c1ccc(P(=O)(O)O)o1)n2CC1CCCCCC1`, the concentration for half-maximal inhibition (IC50) in series [1] was 20 µM; with Hepatocyte it was 100 µM; in series [2], 3.25 µM.

Take `COc1ccc2c(nc(-c3ccc(P(=O)(O)O)o3)n2CC(C)C)c1N`: the half-inhibitory concentration (IC50) in series [1] came to 2 µM; with Hepatocyte, 16 µM; in series [2], 0.7 µM.

Take `CC(C)Cn1c(-c2ccc(P(=O)(O)O)o2)nc2c(N)c(F)cc(-c3ccc(F)cc3)c21`: the IC50 is 1.3 µM in series [1], 21 µM with Hepatocyte and 0.18 µM in series [2]. In addition, the Activity with Rattus norvegicus is given as 0%.

Turning to `CC(C)Cn1c(-c2ccc(P(=O)(O)O)o2)nc2c(N)c(F)c(Cl)cc21`, the results for the 50% inhibitory concentration (IC50) (in series [1]; with Hepatocyte; in series [2]) were 2 µM, 16 µM and 0.225 µM, respectively.

With `CC(C)Cn1c(-c2ccc(P(=O)(O)O)o2)nc2c(N)c(Br)c(Cl)c(Cl)c21`, in series [2], half-maximal inhibition (IC50) required 10 µM.

As for `CC(C)Cn1c(-c2ccc(P(=O)(O)O)o2)nc2c(N)c(F)cc(C3CC3)c21`, the IC50 in series [1] came out at 0.35 µM; with Hepatocyte, 1.5 µM; in series [2] it was 0.06 µM. Further, the Activity in the series on Rattus norvegicus is listed as 64%.

As for `CC(C)Cn1c(-c2ccc(P(=O)(O)O)o2)nc2c(N)c(Br)ccc21`, the IC50 with Hepatocyte was 14 µM; in series [2], 0.4 µM.

With `Nc1cccc2c1nc(-c1ccc(P(=O)(O)O)o1)n2CC12CCC(CC1)C2`, the figures for the concentration for half-maximal inhibition (IC50) (in series [1]; with Hepatocyte; in series [2]) were 2 µM, 25 µM and 1 µM, respectively.

On to `CC(C)Cn1c(-c2ccc(P(=O)(O)O)o2)nc2c(N)ccc(Br)c21`, for which the figures for the IC50 (in series [1]; in the series with Hepatocyte; in series [2]) were 2 µM, 14 µM and 0.4 µM, respectively.

Consider `CC(C)Cn1c(-c2ccc(P(=O)(O)O)o2)nc2c(N)c(Cl)cc(Cl)c21`, for which the IC50 came to 2 µM in series [1], 14 µM with Hepatocyte and 0.45 µM in series [2].

`Nc1cccc2c1nc(-c1ccc(P(=O)(O)O)o1)n2Cc1ccc(C(F)(F)F)cc1`: the IC50 in series [1] was 20 µM; in the series on Hepatocyte it was 100 µM; in series [2], 7 µM.

`CCC(CC)n1c(-c2ccc(P(=O)(O)O)o2)nc2c(N)c(F)ccc21`: the IC50 in series [1] was found to be 2.5 µM; with Hepatocyte it was 9.5 µM; in series [2], 0.85 µM.

For `CCn1c(-c2ccc(P(=O)(O)O)o2)nc2c(N)cccc21`, the IC50 in series [1] turned out to be 40 µM; in series [2], 2.25 µM.

For `CC(C)Cn1c(-c2ccc(P(=O)(O)O)o2)nc2c(N)cccc21`, the IC50 amounted to 4 µM in series [1], 20 µM in the series with Hepatocyte and 1.5 µM in series [2].

On to `CC(C)Cn1c(-c2ccc(P(=O)(O)O)o2)nc2c(N)c(F)cc(CCC(C)(C)C)c21`, for which the IC50 in series [1] came to 1.6 µM; in the series with Hepatocyte it was 18 µM; in series [2] it was 0.21 µM. Moreover, the Activity in the series with Rattus norvegicus worked out at 28%.

As for `CC(C)Cn1c(-c2ccc(P(=O)(O)O)o2)nc2c(N)c(O)ccc21`, the IC50 in series [1] was 20 µM; with Hepatocyte, 25 µM; in series [2] it was 0.5 µM.

For the compound `CC(C)Cn1c(-c2ccc(P(=O)(O)O)o2)nc2c(N)c(F)cc(Cl)c21`, the values for the IC50 in series [1] and in series [2] were 2 µM and 0.1 µM, respectively.

Turning to `CC(C)CCCc1cc(F)c(N)c2nc(-c3ccc(P(=O)(O)O)o3)n(CC(C)C)c12`, the IC50 in series [1] came out at 2.1 µM; with Hepatocyte it was 23 µM; in series [2] it was 0.1 µM.

`CCc1ccc2c(nc(-c3ccc(P(=O)(O)O)o3)n2CC(C)C)c1N`: the IC50 was 20 µM in series [1], 50 µM in the series with Hepatocyte and 2.5 µM in series [2].

As to `Nc1cccc2c1nc(-c1ccc(P(=O)(O)O)o1)n2Cc1ccccc1`, the results for the IC50 (in series [1]; in the series with Hepatocyte; in series [2]) were 20 µM, 100 µM and 5 µM, respectively.

Consider `CCC(CC)Cn1c(-c2ccc(P(=O)(O)O)o2)nc2c(N)c(F)ccc21`, for which the IC50 in series [1] came to 0.85 µM; with Hepatocyte, 5 µM; in series [2], 0.15 µM.

For `C=Cc1cc(F)c(N)c2nc(-c3ccc(P(=O)(O)O)o3)n(CC(C)C)c12`, the IC50 in series [1] came to 0.9 µM; in the series with Hepatocyte, 25 µM; in series [2] it was 0.28 µM.

Broadly, the IC50 is the concentration that inhibits the measured activity by half. A word on the bioavailability: it is dose-corrected exposure relative to a reference, in per cent.
